Source: patent US20240417387A1, “SULFONYLPIPERAZINYL COMPOUNDS FOR TREATMENT OF BACTERIAL INFECTIONS” (Hoffmann-La Roche Inc., priority 2021, published 2024)
≈ marks a conversion by molar mass, not a printed value. Like-named read-outs stand apart in the source and are kept apart here.

Legend:
[1] = target: Escherichia coli UDP-2,3-diacylglucosamine hydrolase (LpxH) (Escherichia coli (strain K12), UniProt P43341); assay: Enzymatic IC50 assay of Escherichia coli LpxH (UMP/CMP-Glo luminescence); type: biochemical
Protocol: The inhibitory potency of compounds of Escherichia coli UDP-2,3-diacylglucosamine hydrolase (LpxH) was determined in an enzymatic assay. UDP-2,3-diacylglucosamine (UDP-DAG) was purified from the Caulobacter crescentus LpxI D225A mutant protein that contained a tightly bound UDP-DAG molecule. The enzyme was diluted using assay buffer containing 50 mM NaCl, 20 mM Tris-HCl pH7.5, 2.5 mM MnCl2, 0.01% Triton X-100.1 mg/mL BSA, and the final concentration is 2 nM. The compounds were diluted by Agilent liquid handler Bravo, the compound's serial dilution dose ranges from 100 μM to 1.7 nM. Then the enzyme and compounds mixture were incubated at room temperature for 10 mins. The enzymatic assay was started by adding UDP-DAG (FAC is 5 μM) and incubated for 20 mins at room temperature. The plate was then heated to 95° C. for 15 mins on a water batch to stop the reaction. The hydrolysis of UDP-DAG by LpxH yielded 2,3-diacylglucosamine 1-phosphate (lipid X) and UMP, which was converted to ATP and quantified by the luciferase reaction using the UMP/CMP-Glo™ Glycosyltransferase Assay kit from Promega. The compound's inhibitory effect of LpxH is determined by measuring the light change using a luminometer (Envision).

[2] = tested on: Escherichia coli BW 25113; assay: Minimal Inhibitory Concentration (MIC) broth dilution assay, E. coli BW 25113; type: cell-based; conditions: Escherichia coli, BW25113, 20 hours at 35° C., CAMHB, read-out: MIC E. coli K-12 BW 25113
Method in brief: (§1)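 Broth microdilution with twofold compound series in cation-adjusted Mueller Hinton broth, inoculum 5×10^5 CFU/mL, applied to each strain. Plates incubated 20 h at 35 °C in ambient air. MIC […] recorded as the lowest concentration with no visible growth, read by eye.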

[3] = tested on: Escherichia coli ATCC 25922; assay: Minimal Inhibitory Concentration (MIC) broth dilution assay, E. coli ATCC 25922; type: cell-based; conditions: Escherichia coli, ATCC25922, 20 h, read-out: MIC E. coli ATCC 25922
Method in brief: as §1

[4] = tested on: Klebsiella pneumonia ATCC 43816; assay: Minimal Inhibitory Concentration (MIC) broth dilution assay, K. pneumonia ATCC 43816; type: cell-based; conditions: Klebsiella pneumoniae, ATCC43816, 20 hours at 35° C., CAMHB, read-out: MIC K. p ATCC 43816
Method in brief: as §1

[5] = Human microsome stability assay; type: in vitro ADME; conditions: human liver microsomes 0.5 mg/mL, 37° C., pH 7.4, NADPH regenerating system
Method in brief: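 Compound […] with 0.5 mg/mL human liver microsomal protein in 100 mM potassium phosphate pH 7.4, 10 min preincubation at 37 °C, started with NADPH regenerating system. Sampled 0–30 min, remaining compound by LC-MS/MS; clearance binned low <7, medium 7–16.2, high >16.2 mL/min/kg.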

[6] = Enzymatic IC50 against Escherichia coli LpxH, read-out: IC50 (converted)

Escherichia coli UDP-2,3-diacylglucosamine hydrolase (LpxH), sequence (P43341 whole entry): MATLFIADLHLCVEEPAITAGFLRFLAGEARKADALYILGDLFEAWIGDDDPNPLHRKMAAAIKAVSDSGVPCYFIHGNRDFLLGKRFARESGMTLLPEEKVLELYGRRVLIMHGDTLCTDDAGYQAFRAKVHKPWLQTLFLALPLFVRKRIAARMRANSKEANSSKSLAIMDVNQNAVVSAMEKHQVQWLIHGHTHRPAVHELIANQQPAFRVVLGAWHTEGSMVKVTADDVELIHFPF

SMILES	IC50 [1] [nM]	MIC [2] [µg/mL]	MIC [3] [µg/mL]	MIC [4] [µg/mL]	Clearance of Human microsome [5] [mL/min/kg]	IC50 [1, 6] [nM]
NC1CC(=O)N(c2ccc(S(=O)(=O)N3CCN(c4cc(C(F)(F)[C@H]5CC[C@H](C(=O)NCCCO)CC5)cc(Cl)n4)CC3)cc2)C1 (stereo partly drawn) [Example 003, Trans-4-[[2-[4-[4-(4-amino-2-oxo-pyrrolidin-1-yl)phenyl]sulfonylpiperazin-1-yl]-6-chloro-4-pyridyl]-difluoro-methyl]-N-(3-hydroxypropyl)cyclohexanecarboxamide]	< 2.99	1 (≈ 1.49 µM)	4.2 (≈ 6.28 µM)	2.1 (≈ 3.14 µM)	7.41	
NC(CO)CNC(=O)[C@H]1CC[C@H](C(F)(F)c2cc(Cl)nc(N3CCN(S(=O)(=O)c4ccc(N5C[C@H](N)CC5=O)cc4)CC3)c2)CC1 (stereo partly drawn) [Example 052, Trans-N-(2-amino-3-hydroxy-propyl)-4-[[2-chloro-6-[4-[4-[(4R)-4-amino-2-oxo-pyrrolidin-1-yl]phenyl]sulfonylpiperazin-1-yl]-4-pyridyl]-difluoro-methyl]cyclohexanecarboxamide]		0.56 (≈ 0.818 µM)	0.56 (≈ 0.818 µM)	0.56 (≈ 0.818 µM)	7.41	< 2.92
NCCCNC(=O)[C@H]1CC[C@@H](C(F)(F)c2cc(Cl)nc(N3CCN(S(=O)(=O)c4ccc(N5C[C@H](N)CC5=O)cc4)CC3)c2)CC1 [Example 031]		1.7 (≈ 2.54 µM)	2.2 (≈ 3.29 µM)	2.2 (≈ 3.29 µM)	6.15	7.48
C[N+](C)(CCN)CCNC(=O)[C@H]1CC[C@H](C(F)(F)c2cc(Cl)nc(N3CCN(S(=O)(=O)c4ccc(N5C[C@H](N)CC5=O)cc4)CC3)c2)CC1 [Example 073, Trans-2-aminoethyl-[2-[[4-[[2-chloro-6-[4-[4-[(4R)-4-amino-2-oxo-pyrrolidin-1-yl]phenyl]sulfonylpiperazin-1-yl]-4-pyridyl]-difluoro-methyl]cyclohexanecarbonyl]amino]ethyl]-dimethyl-ammonium]		1.2	1.2	2.4	6.15	< 2.75
C[N+](C)(C)CCCNC(=O)c1ccc(C(F)(F)c2cc(Cl)nc(N3CCN(S(=O)(=O)c4ccc(N5C[C@H](N)CC5=O)cc4)CC3)c2)cc1 [Example 037]		0.73	1.5	1.5	6.66	< 2.84
NCCCN(CCCN)C(=O)C12CCC(C(F)(F)c3cc(Cl)nc(N4CCN(S(=O)(=O)c5ccc(N6C[C@H](N)CC6=O)cc5)CC4)c3)(CC1)CC2 [Example 045, N,N-bis(3-aminopropyl)-4-[[2-chloro-6-[4-[4-[(4R)-4-amino-2-oxo-pyrrolidin-1-yl]phenyl]sulfonylpiperazin-1-yl]-4-pyridyl]-difluoro-methyl]bicyclo[2.2.2]octane-1-carboxamide]		1.2 (≈ 1.6 µM)	0.62 (≈ 0.825 µM)	0.62 (≈ 0.825 µM)	8.79	18.6
NCCCN(CCCN)C(=O)[C@H]1CC[C@H](C(F)(F)c2cc(Cl)nc(N3CCN(S(=O)(=O)c4ccc(N5C[C@H](N)CC5=O)cc4)CC3)c2)CC1 [Example 044, Trans-N,N-bis(3-aminopropyl)-4-[[2-chloro-6-[4-[4-[(4R)-4-amino-2-oxo-pyrrolidin-1-yl]phenyl]sulfonylpiperazin-1-yl]-4-pyridyl]-difluoro-methyl]cyclohexanecarboxamide]		1.2 (≈ 1.65 µM)	0.62 (≈ 0.855 µM)	1.2 (≈ 1.65 µM)	7.30	48.3
N[C@@H]1CC(=O)N(c2ccc(S(=O)(=O)N3CCN(c4cc(C(F)(F)[C@H]5CC[C@H](C(=O)N[C@H]6CNC[C@H]6N)CC5)cc(Cl)n4)CC3)cc2)C1 (stereo in doubt) [Example 011, Trans-4-[[2-chloro-6-[4-[4-[(4R)-4-amino-2-oxo-pyrrolidin-1-yl]phenyl]sulfonylpiperazin-1-yl]-4-pyridyl]-difluoro-methyl]-N-[cis-4-aminopyrrolidin-3-yl]cyclohexanecarboxamide]		1.1 (≈ 1.58 µM)	1.1 (≈ 1.58 µM)	1.1 (≈ 1.58 µM)	11.93	17.3
C[N+]1(CCCNC(=O)c2ccc(C(F)(F)c3cc(Cl)nc(N4CCN(S(=O)(=O)c5ccc(N6C[C@H](N)CC6=O)cc5)CC4)c3)cc2)CCCC1 [Example 038, 4-[[2-Chloro-6-[4-[4-[(4R)-4-amino-2-oxo-pyrrolidin-1-yl]phenyl]sulfonylpiperazin-1-yl]-4-pyridyl]-difluoro-methyl]-N-[3-(1-methylpyrrolidin-1-ium-1-yl)propyl]benzamide]		1.5	1.5	1.5	6.80	4.1
N[C@@H]1CC(=O)N(c2ccc(S(=O)(=O)N3CCN(c4cc(C(F)(F)[C@H]5CC[C@H](C(=O)NCCN6CCCC6)CC5)cc(Cl)n4)CC3)cc2)C1 [Example 009, Trans-4-[[2-chloro-6-[4-[4-[(4R)-4-amino-2-oxo-pyrrolidin-1-yl]phenyl]sulfonylpiperazin-1-yl]-4-pyridyl]-difluoro-methyl]-N-(2-pyrrolidin-1-ylethyl)cyclohexanecarboxamide]		1.5 (≈ 2.12 µM)	1.5 (≈ 2.12 µM)	1.5 (≈ 2.12 µM)	11.13	< 2.82
NCCCNC(=O)[C@H]1CC[C@H](C(F)(F)c2cc(Cl)nc(N3CCN(S(=O)(=O)c4ccc(N5C[C@H](N)CC5=O)nc4)CC3)c2)CC1 [Example 061, Trans-N-(3-aminopropyl)-4-[[2-chloro-6-[4-[[6-[(4R)-4-amino-2-oxo-pyrrolidin-1-yl]-3-pyridyl]sulfonyl]piperazin-1-yl]-4-pyridyl]-difluoro-methyl]cyclohexanecarboxamide]		1.1 (≈ 1.64 µM)	1.1 (≈ 1.64 µM)	1.1 (≈ 1.64 µM)	6.15	2.99
NCCN(CCN)CCCNC(=O)[C@H]1CC[C@H](C(F)(F)c2cc(Cl)nc(N3CCN(S(=O)(=O)c4ccc(N5C[C@H](N)CC5=O)cc4)CC3)c2)CC1 [Example 047]		0.3 (≈ 0.398 µM)	0.35 (≈ 0.464 µM)	0.3 (≈ 0.398 µM)	6.15	6.63
NCCCNC(=O)[C@H]1CC[C@H](C(F)(F)c2cc(Cl)nc(N3CCN(S(=O)(=O)c4ccc(N5C[C@H](N)CC5=O)cc4)CC3)c2)CC1 [Example 056, Trans-N-(3-aminopropyl)-4-[[2-chloro-6-[4-[4-[(4R)-4-amino-2-oxo-pyrrolidin-1-yl]phenyl]sulfonylpiperazin-1-yl]-4-pyridyl]-difluoro-methyl]cyclohexanecarboxamide]		1.1 (≈ 1.65 µM)	1.2 (≈ 1.8 µM)	1.1 (≈ 1.65 µM)	11.37	5.99
CC1(N)CCN(C(=O)[C@H]2CC[C@H](C(F)(F)c3cc(Cl)nc(N4CCN(S(=O)(=O)c5ccc(N6C[C@H](N)CC6=O)cc5)CC4)c3)CC2)CC1 [Example 004, Trans-(4R)-4-amino-1-[4-[4-[4-[[4-(4-amino-4-methyl-piperidine-1-carbonyl)cyclohexyl]-difluoro-methyl]-6-chloro-2-pyridyl]piperazin-1-yl]sulfonylphenyl]pyrrolidin-2-one]		0.83 (≈ 1.17 µM)	1.1 (≈ 1.55 µM)	1.1 (≈ 1.55 µM)	6.15	8.47
CNCCCNC(=O)c1ccc(C(F)(F)c2cc(Cl)nc(N3CCN(S(=O)(=O)c4ccc(N5C[C@H](N)CC5=O)cc4)CC3)c2)cn1 [Example 029, 5-[[2-chloro-6-[4-[4-[(4R)-4-amino-2-oxo-pyrrolidin-1-yl]phenyl]sulfonylpiperazin-1-yl]-4-pyridyl]-difluoro-methyl]-N-[3-(methylamino)propyl]pyridine-2-carboxamide]		2.8 (≈ 4.13 µM)	1.4 (≈ 2.07 µM)	1.4 (≈ 2.07 µM)	7.22	2.95
